In ChEMBL document CHEMBL6083254, “Optimization of B-Ring-Functionalized Antimalarial Tambjamines and Prodiginines” (J Med Chem, 2024):
Where “and” joins values, the source holds several entries; their conditions need not be identical. Equal entries are not always repeated. Calls of active or inactive are those of the source. No cut-off for these calls is given here.

Experiments:
HepG2 = assay: (§1) Cytotoxicity against human HepG2 cells assessed as cell viability incubated for 72 hrs by MTT assay; type: toxicity, cell-based; conditions: hepg2
Plasmodium yoelii [1] = assay: Antiplasmodial activity against asexual erythrocytic stage of Plasmodium yoelii infected in female CFI mouse model at 25 mg/kg, po administered once daily for 4 days and measured on day 5 by Giemsa staining based microscopic analysis; type: functional, organism-based; conditions: time 5.0 day
[2] = Aqueous solubility of compound in PBS buffer at pH 7.4 incubated for 90 mins by UV-vis spectroscopic analysis; conditions: pH 7.4, 1.5 h
[3] = Metabolic stability in mouse liver microsomes assessed as half life measured upto 60 mins LC-MS analysis
Plasmodium yoelii [4] = assay: Antiplasmodial activity against asexual erythrocytic stage of Plasmodium yoelii infected in female CFI mouse model assessed as reduction in parasitemia at 25 mg/kg, po administered once daily for 4 days and measured on day 5 by Giemsa staining based microscopic analysis relative to control; type: functional; parameters: scale not given: the % may be the effect or the level left; conditions: time 5 day
Plasmodium falciparum [5] = assay: microbe, parasite or virus in culture; conditions: D6, 72 h
[6] = Metabolic stability in human liver microsomes assessed as half life measured upto 60 mins LC-MS analysis
[7] = Metabolic stability in human liver microsomes assessed as intrinsic clearance measured upto 60 mins LC-MS analysis
in vitro = conditions: human
Description: Selectivity index, ratio of IC50 for cytotoxicity against human HepG2 cells assessed as cell viability to IC50 for antiplasmodial activity against asexual erythrocytic stage of Plasmodium falciparum D6 assessed as inhibition of parasitic growth incubated

Plasmodium yoelii [8] = assay: Antiplasmodial activity against asexual erythrocytic stage of Plasmodium yoelii infected in female CFI mouse model assessed as reduction in parasitemia at 3 mg/kg, po administered once daily for 4 days and measured on day 5 by Giemsa staining based microscopic analysis relative to control; type: functional
Plasmodium falciparum [9] = assay: microbe, parasite or virus in culture; conditions: Tm90-C2B, 72 h
Plasmodium yoelii [10] = assay: Antiplasmodial activity against asexual erythrocytic stage of Plasmodium yoelii infected in female CFI mouse model assessed as reduction in parasitemia at 10 mg/kg, po administered once daily for 4 days and measured on day 5 by Giemsa staining based microscopic analysis relative to control; type: functional
Plasmodium yoelii [11] = assay: Antiplasmodial activity against asexual erythrocytic stage of Plasmodium yoelii infected in female CFI mouse model assessed as reduction in parasitemia at 1 mg/kg, po administered once daily for 4 days and measured on day 5 by Giemsa staining based microscopic analysis relative to control; type: functional
[12] = Metabolic stability in mouse liver microsomes assessed as intrinsic clearance measured upto 60 mins LC-MS analysis
Plasmodium falciparum [13] = assay: microbe, parasite or virus in culture; conditions: Dd2, 72 h
Plasmodium yoelii [14] = assay: Antiplasmodial activity against asexual erythrocytic stage of Plasmodium yoelii infected in female CFI mouse model at 10 mg/kg, po administered once daily for 4 days and measured on day 5 by Giemsa staining based microscopic analysis; type: functional, organism-based; conditions: time 5.0 day
Plasmodium yoelii [15] = assay: Antiplasmodial activity against asexual erythrocytic stage of Plasmodium yoelii infected in po dosed female CFI mouse model assessed as reduction in parasitemia administered once daily for 4 days and measured on day 5 by Giemsa staining based microscopic analysis; type: functional; conditions: time 5 day, 120 h
[16] = as §1; type: toxicity, cell-based; conditions: human, HepG2 cells
[17] = Plasmodium yoelii, po, read-out: ED50

Row | SMILES | IC50 (HepG2) | Activity (Plasmodium yoelii [1]) | solubility [2] | half-life at 1 h [3] | Activity (Plasmodium yoelii [4]) | IC50 (Plasmodium falciparum [5]) | half-life at 1 h [6] | microsomal CLint at 1 h [7] | selectivity ratio (in vitro) | Activity (Plasmodium yoelii [8]; time 5.0 day) | IC50 (Plasmodium falciparum [9]) | Activity (Plasmodium yoelii [10]; time 5.0 day) | Activity (Plasmodium yoelii [11]; time 5.0 day) | microsomal CLint at 1 h [12] | IC50 (Plasmodium falciparum [13]) | Activity (Plasmodium yoelii [10]; time 5 day) | Activity (Plasmodium yoelii [11]; time 5 day) | further results
1 | CCCCCCCCCCCc1ccc(/C=C2\N=C(c3ccc[nH]3)C=C2OCC)[nH]1.Cl | 21000 nM | inactive | < 3.125 µM | 41.9 min | 100% | 4.41 nM | > 60 min | 19.1 µL/min/mg | 4750 | inactive | 4.02 nM | inactive | inactive | 33.1 µL/min/mg | 3.45 nM |  |  | 
2 | CCCCCc1cc(/C=C2\N=C(c3ccc[nH]3)C=C2OCCC)[nH]c1C.Cl | 3560 nM |  | 18.5 µM | 34 min | 100% | 0.307 nM | 43.6 min | 31.8 µL/min/mg | 11600 |  | 4.58 nM |  |  | 40.8 µL/min/mg | 0.501 nM | 100% | 23.9% | Activity (Plasmodium yoelii [14]): inactive; ED50 (Plasmodium yoelii [15]): 1.46 mg/kg/day and 3 mg/kg/day; Activity (Plasmodium yoelii [8]; time 5 day): 89.9%
3 | CCN(CC)CCCC(C)Nc1ccnc2cc(Cl)ccc12 (stereo not drawn) [CHLOROQUINE] |  | inactive |  |  | 100% |  |  |  |  | inactive |  | inactive | inactive |  |  |  |  | 
4 | CCCCCCCCCCCC1=N/C(=C\c2[nH]c(-c3ccc[nH]3)cc2OC)C=C1 [UNDECYLPRODIGININE] |  | Active |  |  | 100% | 7.22 nM |  |  | 237 | inactive | 8.21 nM | inactive | inactive |  | 7.54 nM |  |  | IC50 at 72 h [16]: 1710 nM
5 | CCCCCc1cc(/C=C2\N=C(c3ccc[nH]3)C=C2Oc2ccc(Cl)cc2)[nH]c1C.Cl | 9570 nM | Active |  |  |  | 7.89 nM |  |  | 1210 |  | 10 nM |  |  |  | 7.03 nM | 100% | 5.01% | ED50 (Plasmodium yoelii [15]; [17]): 1.15 mg/kg/day; ED50 (Plasmodium yoelii [15]): 1.25 mg/kg/day
6 | CCCOC1=CC(c2ccc[nH]2)=N/C1=C\NC12CC3CC(CC(C3)C1)C2.Cl | 2510 nM |  | 52.2 µM | 43.5 min | 81.8% | 1.17 nM | 32 min | 42.8 µL/min/mg | 2140 |  | 1.61 nM |  |  | 31.8 µL/min/mg | 1.45 nM |  |  | 
7 | CCCCCc1cc(/C=C2\N=C(c3ccc[nH]3)C=C2OCc2ccc(OC(F)(F)F)cc2)[nH]c1C.Cl | 6520 nM | inactive |  |  | 100% | 7.24 nM |  |  | 900 | inactive | 12.5 nM | inactive | inactive |  | 7.97 nM |  |  | 
8 | CCCCCc1cc(/C=C2\N=C(c3ccc[nH]3)C=C2OC(C)C)[nH]c1C.Cl | 3480 nM | Active |  |  | 100% | 1.09 nM |  |  | 3190 |  | 1.56 nM |  |  |  | 0.27 nM | 100% | 4.2% | Activity (Plasmodium yoelii [14]): inactive; ED50 (Plasmodium yoelii [15]; [17]): 2.25 mg/kg/day; ED50 (Plasmodium yoelii [15]): 4.42 mg/kg/day; Activity (Plasmodium yoelii [8]; time 5 day): 71.8%
9 | CCCCCc1cc(/C=C2\N=C(c3ccc[nH]3)C=C2OCC)[nH]c1C.Cl | 3680 nM |  |  |  | 100% | 2.45 nM |  |  | 1500 |  | 7.29 nM |  |  |  | 1.31 nM | 100% | 2.1% | Activity (Plasmodium yoelii [14]): inactive; ED50 (Plasmodium yoelii [15]; [17]): 3.12 mg/kg/day; ED50 (Plasmodium yoelii [15]): 5.61 mg/kg/day; Activity (Plasmodium yoelii [8]; time 5 day): 46.6%
10 | CCCCCC1=C/C(=C\c2[nH]c(-c3ccc[nH]3)cc2OC)N=C1C |  |  |  | 23 min |  | 8.01 nM | > 60 min | 13.1 µL/min/mg |  |  | 8.8 nM |  |  | 61.2 µL/min/mg | 7.32 nM |  |  | IC50 at 72 h [16]: 1070 nM
11 | CCCCCCCCCCCc1ccc(/C=C2\N=C(c3ccc[nH]3)C=C2Oc2ccccc2)[nH]1.Cl |  | inactive | 8.19 µM | 16.2 min | 100% |  | 59.2 min | 23.4 µL/min/mg | > 2440 | inactive | 64.3 nM | inactive | inactive | 85.7 µL/min/mg | 80.9 nM |  |  | IC50 at 72 h [16]: > 200000 nM
12 | CCCCCc1cc(/C=C2\N=C(c3ccc[nH]3)C=C2Oc2ccc(OC(F)(F)F)cc2)[nH]c1C.Cl | 16500 nM | Active | < 3.125 µM | 38 min | 100% | 8.61 nM | 59.4 min | 23.3 µL/min/mg | 1910 |  | 9.54 nM |  |  | 36.4 µL/min/mg | 7.4 nM | 100% | 49.1% | Activity (Plasmodium yoelii [14]): inactive; ED50 (Plasmodium yoelii [15]; [17]): 1.01 mg/kg/day; Activity (Plasmodium yoelii [8]; time 5 day): 92%
13 | CCCCCCCCCCCc1ccc(/C=C2\N=C(c3ccc[nH]3)C=C2OCCC)[nH]1.Cl | 18900 nM | inactive |  |  | 100% | 6.71 nM |  |  | 2810 | inactive | 8.01 nM | inactive | inactive |  | 7.56 nM |  |  | 
14 | CCCCCCCCCCCc1ccc(/C=C2\N=C(c3ccc[nH]3)C=C2OCc2ccccc2)[nH]1.Cl | 53600 nM |  | < 3.125 µM | > 60 min | 62.3% |  | > 60 min | 7.29 µL/min/mg | 2020 | inactive | 22.4 nM | inactive | inactive | 4.03 µL/min/mg | 26.4 nM |  |  | 
15 | CCCCCCCCCCCc1ccc(/C=C2\N=C(c3ccc[nH]3)C=C2OC(C)C)[nH]1.Cl | 87300 nM | inactive |  |  | 100% | 26.9 nM |  |  | 3240 | inactive | 35.6 nM | inactive | inactive |  | 18.2 nM |  |  | 
16 | CCCCCc1cc(/C=C2\N=C(c3ccc[nH]3)C=C2OCc2ccccc2)[nH]c1C.Cl | 7090 nM |  | < 3.125 µM | > 60 min | 100% | 7.91 nM | > 60 min | 3.89 µL/min/mg | 896 |  | 9.73 nM |  |  | 7.33 µL/min/mg | 4.25 nM | 86.9% | 16.8% | Activity (Plasmodium yoelii [8]; time 5 day): 43.3%
17 | CCCCCc1cc(/C=C2\N=C(c3ccc[nH]3)C=C2OCc2ccc(Cl)cc2)[nH]c1C.Cl | 10500 nM |  |  |  | 97.1% | 7.13 nM |  |  | 1480 | inactive | 8.73 nM | inactive | inactive |  | 4.44 nM |  |  | 
18 | C1=C(Oc2ccccc2)/C(=C/NC23CC4CC(CC(C4)C2)C3)N=C1c1ccc[nH]1.Cl | 8570 nM |  | 7.88 µM | > 60 min | >99% | 25.9 nM | 34.7 min | 40 µL/min/mg | 331 |  | 17.7 nM |  |  | 18.9 µL/min/mg | 22 nM |  |  | 
